Assay results taken from patent publication US8987449B2, “Medicine for treating ischemic brain injury and its sequelae, and preparation method thereof” (Haimin Lei, priority 2011, dated 2015).

Experiments:
[1] = system: rat primary cortical neurons; test: Proliferation of primary neuronal cells by MTT and morphology observation; type: cell-based; conditions: for MTT(A540), 24 h after the administration: normal neurons, control 0.7567 ± 0.1109
Method: SD pregnant rats: pregnant for 16-18 d, certificate number: SCXK (Jing) 2006-0009, provided by BeiJing Vital River Laboratories.
LQC-T4 (prepared by the method of example 5), the purity was ≧98%, determined by high performance liquid chromatography (HPLC), which met the requirement of the experiment. The powder was carefully sealed and preserved at 4° C. The prepared LQC-T4 was dissolved using dimethyl sulfoxide and made into […] storing liquid for use.
Referring to the document [HongQingtao, TangYipeng, Neurons of cerebral cortex of newborn rats in in vitro primary culture, Chinese Journal of Neuroanatomy, 1994, 10(3):259-262], the pregnant 16-18 d SD rat was executed by dislocation. The fetal rat was taken out in an aseptic environment, the meninges and blood steak were stripped, the cortex was separated and cut into 1 mm^3 tissue block (all carried out on ice). The tissue block was digested at 37[…] with 0.1% pancreatic enzyme-0.02% EDTA for 20 min. Digesting was stopped using DMEM containing fetal calf serum and the number of the cells was adjusted to 5×10^5 cells ml^−1. The resultant cells were inoculated into a 96 well plate treated by 0.001% polylysine and the plate was put in a 37° C. 5% CO2 incubation box to be cultured. The cultivation liquid was changed (totally) after 48 h and add adenine arabinoside was added (final concentration is 5 μM) to inhibit the excessive proliferation of non-neurons. The cultivation liquid was changed after 48 h with fresh cultivation liquid and culture was continued. And the cultivation liquid was changed every 3 days afterward.
The cultivation liquid was sucked away on the eighth day of neuron culture. DMEM culture-medium containing 0.15% DMSO was added to the blank group, while 60 μM, 30 μM, 15 μM LQC-T4, 60 μM tetramethylpyrazine and 60 μM vanillic acid were respectively added to the administration group. Ten parallel wells were set as a group. And they were put into a 37° C., 5% CO2 incubation box to continue culturing for 24 h.
5 mg/ml MTT 20 μl was added to each well at the time of 4 h before the experiment ended and the cultivation liquid was sucked away. DMSO 200 μl was added to each well. When the purple particles were completely dissolved, the enzyme-linked immune assay was used to measure the optical density at 540 nm.
The SAS 8.2 statistical software was used to carry out the one-way ANOVA variance analysis and the difference among the groups were compared by t-test.

[2] = system: VEGF; test: VEGF expression in the cortex infarction zone (immunohistochemistry SP two-step method); type: in vivo, rat; conditions: MCAO rats, vs model group
[3] = system: MDA; test: MDA of MCAO rats (brain homogenate, kit); type: in vivo, rat; conditions: model group 14.53 ± 3.29
Method: 10% chloral hydrate 0.35 g/kg was injected into the abdominal cavity of a rat to anesthetize thereof. The rat was fixed as supine position. The skin was disinfected thereof by 75% medical alcohol. It was cut right in the middle of the neck. The right common carotid artery, internal carotid artery and external carotid artery were separated and the common carotid artery and external carotid artery were ligated. The internal carotid artery was clamped with a bulldog clamp. A cut was made at the crotch of the external carotid artery and the internal carotid artery followed by releasing the bulldog clamp. The nylon wire (diameter 0.25 mm, marked at a distance of 18 mm from the head end) was inserted into the cut and the insertion was stopped when some resistance was felt. The insert depth was a little longer than 18 mm to achieve the cerebral ischemia caused by middle cerebral artery occlusion. The internal carotid artery was ligated and the nylon wire was fixed. The muscle and skin were sutured layer by layer. In sham operation group, the right common carotid artery, the external carotid artery and the internal carotid artery were only exposed and separated. The rats were conventionally raised in different cages regularly. 0.5 ml penicillin was continuously injected into every rat for three days after the surgery.
The rats were divided into 7 groups in the experiment, that is, sham operation group, model group, Nimodipine group, LQC-T4 large dosage group, LQC-T4 small dosage group, TMP group, and TMP+Vanillic acid group. The model rats getting 1 point were distributed randomly into the model group and other administration group, while the rats getting 2 point and 3 point were distributed randomly into above 6 groups according the above method and sham operation group was not involved in the above grouping. 0.5% CMC-NA (1 ml·100 g^−1) was administrated intragastrically to the blank control group and the model group, two dosage group of 120 mg·kg^−1, 60 mg·kg^−1 were administrated intragastrically to the LQC-T4 (1 ml·100 g^−1) group, and 74 mg·kg^−1 TMP+46 mg·kg^−1 vanillitc acid (1 ml·100 g^−1) were administrated intragastrically, once per day continuously for 10 days.
10% chloral hydrate 0.35 g/kg was injected into the abdominal cavity to anesthetize them after the rats were administrated for 10 days. The head was cut and the brain was taken. The cranial bones were stripped, the meninges were peeled off to separate the ischemia side of the brain, the blood streak was striped and then the brain was weighed. 4 times amount of 0.9 physiological saline was added and the brain was homogenized in 0° C. ice bath. […]
It was detected with 722 type visible spectrophotometer according to the kit operation. […]

[4] = system: VEGF; test: VEGF content of MCAO rats (kit, 450 nm); type: in vivo, rat; conditions: brain homogenate, model group 18.28 ± 1.62
Text: 1.1 Experimental animal and 1.2 Medicine to be tested: the same as effect example 6
1.3 Experimental reagents: PBS, VEGF kit
1.4 Experimental instruments: nylon fishing wire having a diameter of 0.25 mm, German; enzyme-labeling instrument (Finland, Thermo BioAnalysis Company's product, Multiskan MK3 model); surgical instruments, Surgical Instrument Factory of Shanghai Medical Apparatus And Instruments CO, LTD.
2.1 The preparation of re-perfusion model of middle cerebral artery occlusion of a rat: the same as effect example 6
2.2 The judgment on whether the model was successful and 2.3 Grouping and administration: the same as effect example 6
2.4 Taking Material and treatment: the same as effect example 6
As to VEGF, it is detected using enzyme-labeling instrument at 450 nm according to the kit.
The SAS 8.2 statistical software was used to carry out the one-way ANOVA variance analysis and the differences among the groups were compared by t-test.

[5] = 60 mg/kg intragastrically once per day for 10 days
[6] = 120 mg/kg intragastrically once per day for 10 days
[7] = 30 mg/kg once per day for 10 days
[8] = 37 mg/kg once per day for 10 days

SMILES: COc1cc(C(=O)OCc2nc(C)c(C)nc2C)ccc1OCc1nc(C)c(C)nc1C [LQC-T4, (3,5,6-trimethylpyrazine-2-yl)methyl 3-methoxy-4-((3,5,6-trimethylpyrazine-2-yl)methoxy) benzoate]
- MTT(A540), 24 h after the administration ([1]; 15 μM): 0.9175 ± 0.2300
- MTT(A540), 24 h after the administration ([1]; 30 μM): 0.9114 ± 0.1599
- MTT(A540), 24 h after the administration ([1]; 60 μM): 0.8106 ± 0.2415
- promoting effect on the growth of normal neurons ([1]; 24 h after the administration, P>0.05, result in words): greater than that of the tetramethylpyrazine group and the vanillic acid group
- morphology observation of primary neuronal cells ([1]; phase contrast microscope, vs normal group): more prosperous in growth and their protrusions formed a network
- VEGF expression in the rat cerebral infarction zone ([2]; 60 mg/kg small dosage group): more than that of the model group
- VEGF expression in the rat cerebral infarction zone ([2]; 120 mg/kg large dosage group): more than that of the model group
- MDA [3, 5]: 14.32 ± 6.31
- MDA [3, 6]: 11.08 ± 4.53
- VEGF [4, 5]: 25.67 ± 9.69
- VEGF [4, 6]: 22.86 ± 8.42

SMILES: COCCOC(=O)C1=C(C)NC(C)=C(C(=O)OC(C)C)C1c1cccc([N+](=O)[O-])c1 (centres unmarked) [Nimodipine, reference compound]
- MDA [3, 7]: 13.70 ± 6.56
- VEGF [4, 7]: 19.66 ± 2.34

SMILES: Cc1nc(C)c(C)nc1C [TMP, tetramethylpyrazine, reference compound]
- MTT(A540), 24 h after the administration ([1]; 60 μM): 0.8710 ± 0.1350
- VEGF expression in the rat cerebral infarction zone ([2]; TMP group): more than that of the model group
- MDA [3, 8]: 13.27 ± 3.96
- VEGF [4, 8]: 23.62 ± 6.68
